Experimental data: ChEMBL document CHEMBL5500324, “The potential of marine-derived piperazine alkaloids: Sources, structures and bioactivities” (Eur J Med Chem, 2024)
≈ marks a conversion by molar mass, not a printed value.

Key:
[1] = Cytotoxicity against human A2780cis cells assessed as inhibition of cell growth incubated for 72 hrs by SRB assay; assay type: functional, cell-based
P388 [2] = test: Cytotoxicity against mouse P388 cells assessed as reduction in cell viability by SRB assay; assay type: functional, cell-based
HL-60 [3] = test: Cytotoxicity against human HL-60 cells assessed as reduction in cell viability measured for 24 hrs by MTT assay; assay type: functional, cell-based; details: HL-60, 24 h
A549 [4] = test: Cytotoxicity against human A549 cells assessed as inhibition of cell growth; assay type: functional, cell-based
P388 [5] = test: Cytotoxicity against mouse P388 cells assessed as inhibition of cell growth; assay type: functional, cell-based
HT-29 [6] = test: Cytotoxicity against human HT-29 cells assessed as inhibition of cell growth; assay type: functional, cell-based
SK-MEL-28 = test: Cytotoxicity against human SK-MEL-28 cells assessed as inhibition of cell growth; assay type: functional, cell-based
A549 [7] = test: Cytotoxicity against human A549 cells assessed as reduction in cell viability measured after 48 hrs by MTT assay; assay type: functional, cell-based; details: A549, 48 h
HCT-116 = test: Cytotoxicity against human HCT-116 cells assessed as inhibition of cell growth incubated for 72 hrs by SRB assay; assay type: functional, cell-based; details: HCT-116, 72 h
[8] = Cytotoxicity against Sf9 cells assessed as inhibition of cell growth measured after 24 hrs by MTT assay; assay type: toxicity, cell-based; details: Spodoptera frugiperda
A549 [9] = test: Cytotoxicity against human A549 cells assessed as reduction in cell growth incubated for 72 hrs by SRB assay; assay type: functional, cell-based; details: A549, 72 h
Bel-7402 = test: Cytotoxicity against human Bel-7402 cells assessed as reduction in cell growth incubated for 72 hrs by SRB assay; assay type: functional, cell-based; details: Bel-7402, 72 h
HL-60 [10] = test: Cytotoxicity against human HL-60 cells assessed as reduction in cell growth incubated for 72 hrs by SRB assay; assay type: functional, cell-based; details: HL-60, 72 h
MDA-MB-231 [11] = test: Antiproliferative activity against human MDA-MB-231 cells assessed as reduction in cell viability incubated for 72 hrs by SRB assay; assay type: functional, cell-based; details: MDA-MB-231, 72 h
HT-29 [12] = test: Antiproliferative activity against human HT-29 cells assessed as reduction in cell viability incubated for 72 hrs by SRB assay; assay type: functional, cell-based; details: HT-29, 72 h
A549 [13] = test: Antiproliferative activity against human A549 cells assessed as reduction in cell viability incubated for 72 hrs by SRB assay; assay type: functional, cell-based; details: A549, 72 h
A549 [14] = test: Cytotoxicity against human A549 cells assessed as inhibition of cell growth incubated for 48 hrs by MTT assay; assay type: functional, cell-based; details: A549, 48 h
HGC-27 = test: Cytotoxicity against human HGC-27 cells assessed as reduction in cell viability; assay type: functional, cell-based
NCI-H460 = test: Cytotoxicity against human NCI-H460 cells assessed as reduction in cell growth by MTT assay; assay type: functional, cell-based
P388 [15] = test: Cytotoxicity against mouse P388 cells assessed as reduction in cell growth; assay type: functional; details: read-out: ED50 (the source's name)
MCF7 = test: Cytotoxicity against human MCF7 cells assessed as reduction in cell growth incubated for 48 hrs by MTT assay; assay type: functional, cell-based; details: MCF7, 48 h
HepG2 [16] = test: Cytotoxicity against human HepG2 cells assessed as reduction in cell growth by MTT assay; assay type: functional, cell-based
L1210 = test: Cytotoxicity against mouse L1210 cells assessed as reduction in cell growth measured after 72 hrs by MTT assay; assay type: functional, cell-based; details: L1210, 72 h
P388 [17] = test: Cytotoxicity against mouse P388 cells assessed as inhibition of cell growth incubated for 72 hrs by MTT assay; assay type: functional, cell-based; details: P388, 72 h
HL-60 [18] = test: Cytotoxicity against human HL-60 cells assessed as reduction in cell growth measured for 72 hrs by MTT assay; assay type: functional, cell-based; details: HL-60, 72 h
HL-60 [19] = test: Cytotoxicity against human HL-60 cells assessed as reduction in cell viability; assay type: functional, cell-based
HeLa [20] = test: Cytotoxicity against human HeLa cells assessed as reduction in cell viability by MTT assay; assay type: functional, cell-based
A-375 = test: Cytotoxicity against human A-375 cells assessed as reduction in cell viability by CCK-8 assay; assay type: functional, cell-based
HepG2 [21] = test: Cytotoxicity against human HepG2 cells assessed as reduction in cell growth incubated for 48 hrs by CCK-8 assay; assay type: functional, cell-based; details: HepG2, 48 h
MDA-MB-231 [22] = test: Cytotoxicity against human MDA-MB-231 cells assessed as reduction in cell growth incubated for 48 hrs by CCK-8 assay; assay type: functional, cell-based; details: MDA-MB-231, 48 h
MKN-1 [23] = test: Antiproliferative activity against human MKN-1 cells assessed as reduction in cell viability measured for 48 hrs by CCK-8 assay; assay type: functional, cell-based; details: MKN-1, 48 h
HeLa [24] = test: Cytotoxicity against human HeLa cells assessed as reduction in cell growth measured after 72 hrs by MTT assay; assay type: functional, cell-based
K562 = test: Cytotoxicity against human K562 cells assessed as reduction in cell viability by MTT assay; assay type: functional, cell-based
HeLa [25] = test: Cytotoxicity against human HeLa cells assessed as reduction in cell growth measured after 24 hrs by MTT assay; assay type: functional, cell-based
MKN-1 [26] = test: Antiproliferative activity against human MKN-1 cells assessed as inhibition of cell proliferation by CCK8 assay; assay type: functional, cell-based
MKN-1 [27] = test: Cytotoxicity against human MKN-1 cells assessed as reduction in cell viability; assay type: functional, cell-based

Structure (SMILES): O=C1N2[C@H]3C(=CC=C[C@@H]3O)C[C@]23SS[C@]12C[C@H]1[C@@H]([C@@H](O)C=C[C@@H]1O)N2C3=O
- IC50 [1]: 0.661 µM

Structure (SMILES): C=CC(C)(C)c1[nH]c2ccccc2c1/C=C1\NC(=O)[C@]2(C[C@H](C)C=C[C@@H]2CCc2c(O)cc(CC=C(C)C)c(O)c2C=O)NC1=O
- IC50 (P388 [2]): 1.83 µM

Structure (SMILES): CC1(C)C=Cc2c(ccc3c2NC(=O)C(C)(C)/C=C\N2C(=O)C4=CCCN4C(=O)[C@@H]2CC3=O)O1
- IC50 (HL-60 [3]): 8.7 µM

Structure (SMILES): COc1c(C)cc2c(c1O)[C@H]1[C@@H]3[C@@H]4SCC(=O)C(=O)OC[C@@H](c5c6c(c(C)c(OC(C)=O)c54)OCO6)N3[C@@H](O)[C@@H](C2)N1C
- IC50 (A549 [4]): 0.02 µg/mL (≈ 0.0326 µM)
- IC50 (P388 [5]): 10 µM
- IC50 (HT-29 [6]): 0.025 µg/mL (≈ 0.0408 µM)
- IC50 (SK-MEL-28): 0.025 µg/mL (≈ 0.0408 µM)
- IC50 (A549 [7]): 0.01 µg/mL (≈ 0.0163 µM)

Structure (SMILES): O=C1N[C@@](O)(Cc2ccccc2)C(=O)N2CCC[C@@H]12
- IC50 (HCT-116): 23 µM

Structure (SMILES): CS[C@@]1(Cc2ccccc2)NC(=O)[C@](O)(Cc2ccccc2)NC1=O
- IC50 at 24 h [8]: 0.7 µM

Structure (SMILES): C=CC(C)(C)[C@@]12C[C@@]3(OC)C(=O)N/C(=C/c4cn(C(C)(C)CC(C)=O)cn4)C(=O)N3[C@]1(C)Nc1ccccc12
- IC50 (A549 [9]): 42.5 µM
- IC50 (Bel-7402): > 50 µM
- IC50 (HL-60 [10]): 36.6 µM

Structure (SMILES): CN1C[C@@H](c2c[nH]c3cc(Br)ccc23)N(C)C[C@@H]1c1c[nH]c2ccccc12
- IC50 (MDA-MB-231 [11]): 7.5 µM
- IC50 (HT-29 [12]): 4.8 µM
- IC50 (A549 [13]): 4.7 µM
- IC50 (A549 [14]): 4.1 µM

Structure (SMILES): C=CC(C)(C)c1[nH]c2ccccc2c1/C=C1\NC(=O)[C@@H]2CCCN2C1=O
- IC50 (HGC-27): 4.54 µM

Structure (SMILES): CN1C(=O)[C@@]23SS[C@]1(C)C(=O)N2[C@H]1Nc2ccccc2[C@@]1(c1c[nH]c2ccccc12)[C@@H]3O
- IC50 (NCI-H460): 0.23 µM
- EC50 (P388 [15]): 2.4 µg/mL (≈ 5.17 µM)
- IC50 (MCF7): 0.23 µM
- IC50 (HepG2 [16]): 0.53 µM

Structure (SMILES): CSC12NC(=O)C(Cc3ccc(OCC=C(C)C)cc3)(NC1=O)[C@H]1C(=O)O[C@H](C)C/C=C/C(=O)O[C@H](C)C[C@@H](O)C(=O)[C@H]12 (stereo partly specified)
- IC50 (L1210): 11.7 µM
- IC50 (P388 [17]): 6.8 µM
- IC50 (HL-60 [18]): 2.2 µM

Structure (SMILES): COc1ccc2c(c1)N[C@@]1(C2=O)[C@H](C=C(C)C)N2C(=O)[C@]3(O)CCCN3C(=O)[C@]2(O)[C@H]1O
- IC50 (HL-60 [19]): 6 µM

Structure (SMILES): CS[C@@H]1C(=O)N[C@](Cc2ccc(OCC=C(C)C)cc2)(SC)C(=O)N1C
- IC50 (HeLa [20]): 4.2 µM

Structure (SMILES): CC(C)C[C@@H]1NC(=O)[C@@H]2C[C@@]3([C@@]45C[C@H]6C(=O)N[C@@H](Cc7ccccc7)C(=O)N6[C@@H]4Nc4ccccc45)c4ccccc4N[C@H]3N2C1=O
- IC50 (A-375): 10.3 µM

Structure (SMILES): COc1ccc2c(c1)NC(=O)[C@]21[C@H](C=C(C)C)N2C(=O)[C@@H]3CCCN3C(=O)[C@]2(O)[C@H]1O
- IC50 (HepG2 [21]): 14.1 µM
- IC50 (MDA-MB-231 [22]): 35.5 µM

Structure (SMILES): C=CC(C)(C)c1[nH]c2cc(CC=C(C)C)ccc2c1/C=C1\NC(=O)[C@H](C)NC1=O
- IC50 (MKN-1 [23]): 4.6 µM

Structure (SMILES): CC(C)[C@H]1C(=O)N2[C@@H]3N4c5ccccc5[C@]3(C[C@@H]3[C@@]5(C)CCCC(C)(C)[C@@H]5CC[C@]34C)C[C@H]2C(=O)N1C
- IC50 (HeLa [24]): 16.7 µM

Structure (SMILES): CS[C@@H]1C(=O)N(C)/C(=C/c2ccc(OCC=C(C)C)cc2)C(=O)N1C
- IC50 (K562): 12.7 µM

Structure (SMILES): O=C1N[C@@H](C[C@@]2(O)c3ccccc3N3C(=O)C[C@@H](c4ccccc4)N[C@H]32)C(=O)N[C@H]1Cc1ccccc1
- IC50 (HeLa [25]): 8.4 µg/mL (≈ 16.9 µM)

Structure (SMILES): C=CC(C)(C)c1[nH]c2ccccc2c1/C=c1\[nH]c(=O)c(=C)[nH]c1=O [NEOECHINULIN B]
- IC50 (MKN-1 [26]): 20.7 µM
- IC50 (MKN-1 [27]): 4.6 µM
